Test results from ChEMBL document CHEMBL4130413, “1-Aryl-1H- and 2-aryl-2H-1,2,3-triazole derivatives blockade P2X7 receptor in vitro and inflammatory response in vivo” (Eur J Med Chem, 2017).

How the values were obtained:
[1] = biological target: T1, UDP-glucuronosyltransferase 1A1 (Homo sapiens, UniProt P22309); assay: Drug metabolism assessed as UGT1A1 (unknown origin)-mediated metabolite formation; type: ADME
T1 sequence (P22309 whole entry): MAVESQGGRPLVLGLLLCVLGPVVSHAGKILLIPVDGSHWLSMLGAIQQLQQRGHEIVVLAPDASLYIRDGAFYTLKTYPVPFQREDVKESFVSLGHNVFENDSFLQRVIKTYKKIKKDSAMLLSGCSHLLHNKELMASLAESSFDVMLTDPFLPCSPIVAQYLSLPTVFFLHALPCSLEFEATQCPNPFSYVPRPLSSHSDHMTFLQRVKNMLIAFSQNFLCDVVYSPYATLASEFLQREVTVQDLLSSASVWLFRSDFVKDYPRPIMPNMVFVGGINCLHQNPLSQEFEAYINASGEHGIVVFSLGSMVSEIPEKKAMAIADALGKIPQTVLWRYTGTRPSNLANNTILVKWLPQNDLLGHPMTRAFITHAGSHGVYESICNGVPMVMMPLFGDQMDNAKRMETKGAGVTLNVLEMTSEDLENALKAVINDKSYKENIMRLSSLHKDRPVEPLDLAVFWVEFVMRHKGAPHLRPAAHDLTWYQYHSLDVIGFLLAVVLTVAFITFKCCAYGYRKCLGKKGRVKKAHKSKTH

[2] = biological target: T2, UDP-glucuronosyltransferase 1A3 (Homo sapiens, UniProt P35503); assay: Drug metabolism assessed as UGT1A3 (unknown origin)-mediated metabolite formation; type: ADME
T2 sequence (P35503 whole entry): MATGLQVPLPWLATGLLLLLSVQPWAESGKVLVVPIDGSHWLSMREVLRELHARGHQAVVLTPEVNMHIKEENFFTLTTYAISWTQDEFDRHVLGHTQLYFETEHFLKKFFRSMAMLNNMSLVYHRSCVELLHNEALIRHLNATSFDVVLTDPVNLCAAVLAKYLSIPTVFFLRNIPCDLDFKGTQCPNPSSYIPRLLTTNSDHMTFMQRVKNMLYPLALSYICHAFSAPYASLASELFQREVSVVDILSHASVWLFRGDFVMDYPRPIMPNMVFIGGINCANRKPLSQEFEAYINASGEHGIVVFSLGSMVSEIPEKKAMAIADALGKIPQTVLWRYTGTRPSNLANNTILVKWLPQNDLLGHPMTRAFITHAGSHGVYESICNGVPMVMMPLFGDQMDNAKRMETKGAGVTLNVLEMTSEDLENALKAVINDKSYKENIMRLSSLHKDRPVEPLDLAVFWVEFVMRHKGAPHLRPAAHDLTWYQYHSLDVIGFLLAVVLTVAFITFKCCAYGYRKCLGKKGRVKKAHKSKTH

[3] = biological target: T3, UDP-glucuronosyltransferase 1A8 (Homo sapiens, UniProt Q9HAW9); assay: Drug metabolism assessed as UGT1A8 (unknown origin)-mediated metabolite formation; type: ADME
T3 sequence (Q9HAW9 whole entry): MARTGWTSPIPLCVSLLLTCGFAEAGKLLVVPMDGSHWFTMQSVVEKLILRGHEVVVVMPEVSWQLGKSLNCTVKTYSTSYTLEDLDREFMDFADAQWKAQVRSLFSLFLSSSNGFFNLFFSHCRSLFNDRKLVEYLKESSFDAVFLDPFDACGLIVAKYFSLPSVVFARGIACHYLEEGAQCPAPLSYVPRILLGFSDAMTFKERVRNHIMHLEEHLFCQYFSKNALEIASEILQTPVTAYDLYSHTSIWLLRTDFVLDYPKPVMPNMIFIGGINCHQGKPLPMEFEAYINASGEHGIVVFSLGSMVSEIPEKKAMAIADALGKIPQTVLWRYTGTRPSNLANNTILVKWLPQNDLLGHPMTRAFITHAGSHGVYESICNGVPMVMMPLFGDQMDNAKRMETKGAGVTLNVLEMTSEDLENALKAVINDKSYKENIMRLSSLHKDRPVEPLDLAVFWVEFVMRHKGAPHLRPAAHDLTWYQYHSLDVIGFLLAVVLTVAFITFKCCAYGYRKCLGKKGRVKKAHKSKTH

[4] = biological target: T4, UDP-glucuronosyltransferase 1A9 (Homo sapiens, UniProt O60656); assay: Drug metabolism assessed as UGT1A9 (unknown origin)-mediated metabolite formation; type: ADME
T4 sequence (O60656 whole entry): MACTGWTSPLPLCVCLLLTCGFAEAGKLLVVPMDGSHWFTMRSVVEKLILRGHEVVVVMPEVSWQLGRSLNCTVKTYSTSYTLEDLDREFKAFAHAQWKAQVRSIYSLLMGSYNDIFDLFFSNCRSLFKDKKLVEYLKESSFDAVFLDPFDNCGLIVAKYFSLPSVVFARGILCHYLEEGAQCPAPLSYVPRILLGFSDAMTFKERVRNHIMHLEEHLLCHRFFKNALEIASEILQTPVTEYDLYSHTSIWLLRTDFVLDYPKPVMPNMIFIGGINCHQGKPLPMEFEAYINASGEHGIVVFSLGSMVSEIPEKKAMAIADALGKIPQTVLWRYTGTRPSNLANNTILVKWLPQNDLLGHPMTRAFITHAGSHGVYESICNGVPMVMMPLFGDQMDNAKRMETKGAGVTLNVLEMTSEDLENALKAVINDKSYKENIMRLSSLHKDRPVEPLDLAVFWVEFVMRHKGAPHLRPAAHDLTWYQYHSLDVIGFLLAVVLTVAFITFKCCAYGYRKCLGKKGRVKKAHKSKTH

Cytochrome P450 1A2 = biological target: T5, Cytochrome P450 1A2 (Homo sapiens, UniProt P05177)
T5 sequence (P05177 whole entry): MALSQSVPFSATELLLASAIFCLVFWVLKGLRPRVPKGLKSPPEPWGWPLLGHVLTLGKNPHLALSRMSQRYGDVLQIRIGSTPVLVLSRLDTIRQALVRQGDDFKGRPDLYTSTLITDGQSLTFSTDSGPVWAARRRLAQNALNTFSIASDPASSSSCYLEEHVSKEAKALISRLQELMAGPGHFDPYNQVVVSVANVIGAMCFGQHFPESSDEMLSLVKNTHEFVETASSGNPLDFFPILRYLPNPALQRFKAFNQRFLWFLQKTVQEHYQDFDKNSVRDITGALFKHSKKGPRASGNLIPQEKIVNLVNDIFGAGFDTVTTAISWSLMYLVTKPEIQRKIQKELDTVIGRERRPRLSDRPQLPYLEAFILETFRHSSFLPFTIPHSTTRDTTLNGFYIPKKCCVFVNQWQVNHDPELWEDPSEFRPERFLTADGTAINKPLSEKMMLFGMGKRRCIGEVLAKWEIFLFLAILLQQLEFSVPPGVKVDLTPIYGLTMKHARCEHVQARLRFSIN
Description: Drug metabolism assessed as CYP1A2 (unknown origin)-mediated metabolite formation

Cytochrome P450 2C19 = Cytochrome P450 2C19 (Homo sapiens, UniProt P33261)
Chain of Cytochrome P450 2C19 (P33261 whole entry): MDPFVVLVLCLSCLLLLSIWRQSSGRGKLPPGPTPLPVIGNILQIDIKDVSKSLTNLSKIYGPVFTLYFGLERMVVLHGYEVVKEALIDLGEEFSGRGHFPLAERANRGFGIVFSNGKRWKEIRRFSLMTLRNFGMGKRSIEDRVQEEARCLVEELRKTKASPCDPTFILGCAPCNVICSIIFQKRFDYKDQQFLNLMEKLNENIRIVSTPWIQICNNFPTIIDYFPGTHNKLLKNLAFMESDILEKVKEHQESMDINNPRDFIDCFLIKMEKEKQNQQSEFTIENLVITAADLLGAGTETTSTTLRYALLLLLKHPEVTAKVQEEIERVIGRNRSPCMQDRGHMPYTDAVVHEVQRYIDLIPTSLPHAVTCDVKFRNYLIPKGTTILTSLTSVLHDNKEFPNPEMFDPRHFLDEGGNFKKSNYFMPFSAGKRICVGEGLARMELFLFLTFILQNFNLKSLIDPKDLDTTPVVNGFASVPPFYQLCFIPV
Description: Drug metabolism assessed as CYP2C19 (unknown origin)-mediated metabolite formation

SMILES	Drug metabolism [1]	Drug metabolism [2]	Drug metabolism [3]	Drug metabolism [4]	Drug metabolism (Cytochrome P450 1A2)	Drug metabolism (Cytochrome P450 2C19)
CC(C)Cc1ccc(C(C)C(=O)O)cc1 (configuration not stated) [IBUPROFEN]	Metabolite_Notdetected	Metabolite_Detected	Metabolite_Notdetected	Metabolite_Detected	Metabolite_Notdetected	Metabolite_Notdetected
CCOCc1cn(-c2ccc(Cl)cc2)nn1	Metabolite_Notdetected	Metabolite_Notdetected	Metabolite_Notdetected	Metabolite_Notdetected	Metabolite_Detected	Metabolite_Notdetected
O=C(O)Cc1ccccc1Nc1c(Cl)cccc1Cl [DICLOFENAC]	Metabolite_Notdetected	Metabolite_Detected	Metabolite_Notdetected	Metabolite_Notdetected	Metabolite_Notdetected	Metabolite_Notdetected
COc1ccc2cc([C@H](C)C(=O)O)ccc2c1 [NAPROXEN]	Metabolite_Detected	Metabolite_Detected	Metabolite_Notdetected	Metabolite_Detected		
